Experimental data from US20110173718A1, “HERBICIDE TOLERANT PLANTS” (SYNGENTA CROP PROTECTION, INC., priority 2008, published 2011).
“And” between values parts separate entries of the source, which are not always exact repeats. Equal entries are not always repeated.

Experiments:
[1] = test system: Arabidopsis HST transgenic tobacco plants; assay: Glasshouse spray test, Arabidopsis HST transgenic tobacco; assay type: in vivo; conditions: for % damaged: 8 DAT; for blch (% bleaching at the meristem relative to control plants) / ht (% height reduction relative to control plants): 100 g, individual T0 lines
Source text: For example the Arabidopsis HST SEQ ID # 11 is cloned behind a double 35s CMV promoter sequence and a TMV translational enhancer sequence and in front of the 3′ terminator from the nos gene. This expression cassette is ligated into pMJB1 (described in WO98/20144) and then into pBIN19 and then transformed into Agrobacterium tuniqfaciens strains LBA4404 prior to plant transformation.
For example, the full length Arabidopsis HST seq ID # 11 is fused to the TMV translational enhancer sequence (SEQ ID #33) by overlapping PCR and, at the same time, 5′ XhoI site and a 3′KpnI site are added by PCR. Site-directed mutagenesis is performed to remove an internal XhoI site. The TMV/HPPD fusion is removed from the pBIN19 by digestion with XhoI/KpnI and is replaced by the TMV/HST fusion (SEQ ID #34). The TMV/HST fusion is now cloned behind a double 35s promoter and in front of the 3′ terminator from the nos gene. Again the modified pBIN19 vector (‘pBinAT HST’) is then transformed into Agrobacterium tumefaciens strain LBA4404.
A master plate of Agrobacterium tumefaciens containing the binary vector pBinAT HST (described above) or analogous binary vector comprising a different HST is used to inoculate 10 ml LB containing 100 mg/1 Rifampicin plus 50 mg/1 Kanamycin using a single bacterial colony. This is incubated overnight at 28° C. shaking at 200 rpm. This entire overnight culture is used to inoculate a 50 ml volume of LA (plus antibiotics). Again this is cultured overnight at 28° C. shaking at 200 rpm. The Agrobacterium cells are pelleted by centrifuging at 3000 rpm for 15 minutes then resuspended in MS medium with 30 g/1 sucrose, pH 5.9 to an OD ([…])=0.6. This suspension is dispensed in 25 ml aliquots into petri dishes.
Clonal micro-propagated tobacco shoot cultures are used to excise young (not yet fully expanded) leaves. The mid rib and outer leaf margins are removed and discarded, the remaining lamina is cut into 1 cm squares. These are transferred to the Agrobacterium suspension for 20 minutes. Explants are then removed, dabbed on sterile filter paper to remove excess suspension then transferred to NBM medium (MS medium, 30 g/1 sucrose, 1 mg/1 BAP, 0.1 mg/1 NAA, pH 5.9, solidified with 8 g/1 Plantagar), with the abaxial surface of each explant in contact with the medium. Approximately 7 explants are transferred per plate, which are then sealed then maintained in a lit incubator at 25° C., 16 hour photoperiod for 3 days.
Explants are then transferred to NBM medium containing 100 mg/1 Kanamycin plus antibiotics to prevent further growth of Agrobacterium (200 mg/1 timentin with 250 mg/1 carbenicillin). Further subculture on to this same medium is then performed every 2 weeks.
As shoots start to regenerate from the callusing leaf explants these are removed to Shoot elongation medium (MS medium, 30 g/1 sucrose, 8 g/1 Plantagar, 100 mg/1 Kanamycin, 200 mg/1 timentin, 250 mg/1 carbenicillin, pH 5.9). Stable transgenic plants readily root within 2 weeks. To provide multiple plants per event to ultimately allow more than one herbicide test per transgenic plant all rooting shoots are micropropagated to generate 3 or more rooted clones.
Putative transgenic plants that are rooting and show vigorous shoot growth on the medium incorporating Kanamycin are analysed by PCR using primers that amplified a 500 bp fragment within the Arabidopsis HST transgene.
Rooted transgenic T0 plantlets are transferred from agar and potted into 50% peat, 50% John Innes soil no 3 or, for example, MetroMix® 380 soil (Sun Gro Horticulture, Bellevue, Wash.) with slow-release fertilizer in 3 inch round or 4 inch square pots and left regularly watered to establish for 8-12 d in the glass house. Glass house conditions are about 24-27° C. day; 18-21° C. night and approximately a 14 h (or longer in UK summer) photoperiod. Humidity is ˜65% and light levels up to 2000 μmol/m^2 at bench level. […]

[2] = test system: weeds; assay: Glasshouse weed control by HST/HPPD (mesotrione) mixtures, post-emergence; assay type: in vivo; conditions: post-emergence; for % damage, 1 g ai ha^−1 mesotrione / % damage, no-mesotrione: 14 DAT; for colby: difference to Colby expectation
Description: Weed seeds are planted out in trays containing suitable soil (for example 50% peat, 50% John Innes soil no 3) and grown in the glass house conditions under 24-27° C. day; 18-21° C. night and approximately a 14 h (or longer in UK summer) photoperiod. Humidity is ˜65% and light levels up to 2000 μmol/m^2 at bench level. Trays are sprayed with test chemicals dissolved in water with 0.2-0.25% X-77 surfactant and sprayed from a boom on a suitable track sprayer moving at about 2 mph in a suitable track sprayer (for example a DeVries spray chamber with the nozzle about 2 inches from the plant tops). Spray volume is suitably 500-1000 l/ha. Sprays are carried out both pre-emergence and over small plants at about 7-12 d post-emergence
Plants are assessed 14 DAT and herbicidal damage is scored on a scale from 0 to 100%. The HST inhibitor compound 2.30 (designated compound A in table 16 and 17), haloxydine (compound 1.1) and compound 2.13 (designated compound AE in tables 16 and 17) are sprayed at rates between 0 and 500 g/ha.

[3] = ALOMY, 16 g/ha + 1 g ai/ha mesotrione
[4] = ALOMY, 31 g/ha + 1 g ai/ha mesotrione
[5] = ALOMY, 63 g/ha + 1 g ai/ha mesotrione
[6] = ALOMY, 125 g/ha + 1 g ai/ha mesotrione
[7] = ALOMY, 250 g/ha + 1 g ai/ha mesotrione
[8] = ALOMY, 500 g/ha + 1 g ai/ha mesotrione
[9] = ECHCG, 16 g/ha + 1 g ai/ha mesotrione
[10] = ECHCG, 31 g/ha + 1 g ai/ha mesotrione
[11] = ECHCG, 63 g/ha + 1 g ai/ha mesotrione
[12] = ECHCG, 125 g/ha + 1 g ai/ha mesotrione
[13] = ECHCG, 250 g/ha + 1 g ai/ha mesotrione
[14] = ECHCG, 500 g/ha + 1 g ai/ha mesotrione
[15] = SETFA, 16 g/ha + 1 g ai/ha mesotrione
[16] = SETFA, 31 g/ha + 1 g ai/ha mesotrione
[17] = SETFA, 63 g/ha + 1 g ai/ha mesotrione
[18] = SETFA, 125 g/ha + 1 g ai/ha mesotrione
[19] = SETFA, 250 g/ha + 1 g ai/ha mesotrione
[20] = SETFA, 500 g/ha + 1 g ai/ha mesotrione

SMILES: Oc1c(Cl)c(F)nc(F)c1Cl [Compound 1.1, haloxydine]
- % damaged ([1]; 250 g/ha, line E9): 20% and 40%
- % damaged ([1]; 250 g/ha, line F6): 50% and 75%
- appearance of plants ([1]; 250 g/ha, 25 DAT, line E9): healthy and similar sized to untreated control plants
- % damage ([1]; 250 g/ha, 25 DAT, line F6): 50-70%

SMILES: CC(C)C(=O)Oc1c(-c2c(F)ccc(Br)c2Cl)c(=O)n(CC(F)F)c2nccnc12 [Compound 2.30]
- blch (% bleaching at the meristem relative to control plants) ([1]; 7 DAT): 30% (2×) and 5% (4×) and 10% (3×) and 15% (2×) and 50% and 70% (2×) and 20% (2×) and 0% (5×) and 40% and 100% and 80% and 25%
- ht (% height reduction relative to control plants) ([1]; 7 DAT): 30% (4×) and 0% (7×) and 50% and 70% (3×) and 80% (3×) and 40% (2×) and 5% and 10% (2×) and 15% and 20%
- blch (% bleaching at the meristem relative to control plants) ([1]; 26 DAT): 25% (2×) and 0% (16×) and 100% and 85% (2×) and 90% (4×)
- ht (% height reduction relative to control plants) ([1]; 26 DAT): 75% (2×) and 5% (6×) and 15% (2×) and 30% (4×) and 50% (2×) and 60% and 80% and 90% (4×) and 35% and 10% (2×)
- % damage, 1 g ai ha^−1 mesotrione [2, 3]: 2%
- colby [2, 3]: 0
- % damage, no-mesotrione ([2]; ALOMY, 16 g/ha): 2%
- % damage, 1 g ai ha^−1 mesotrione [2, 4]: 3%
- colby [2, 4]: 0
- % damage, no-mesotrione ([2]; ALOMY, 31 g/ha): 3%
- % damage, 1 g ai ha^−1 mesotrione [2, 5]: 10%
- colby [2, 5]: 5
- % damage, no-mesotrione ([2]; ALOMY, 63 g/ha): 5%
- % damage, 1 g ai ha^−1 mesotrione [2, 6]: 20%
- colby [2, 6]: 7
- % damage, no-mesotrione ([2]; ALOMY, 125 g/ha): 13%
- % damage, 1 g ai ha^−1 mesotrione [2, 7]: 22%
- colby [2, 7]: 7
- % damage, no-mesotrione ([2]; ALOMY, 250 g/ha): 15%
- % damage, 1 g ai ha^−1 mesotrione [2, 8]: 35%
- colby [2, 8]: 12
- % damage, no-mesotrione ([2]; ALOMY, 500 g/ha): 23%
- % damage, 1 g ai ha^−1 mesotrione [2, 9]: 17%
- colby [2, 9]: −2
- % damage, no-mesotrione ([2]; ECHCG, 16 g/ha): 12%
- % damage, 1 g ai ha^−1 mesotrione [2, 10]: 38%
- colby [2, 10]: 13
- % damage, no-mesotrione ([2]; ECHCG, 31 g/ha): 18%
- % damage, 1 g ai ha^−1 mesotrione [2, 11]: 42%
- colby [2, 11]: −5
- % damage, no-mesotrione ([2]; ECHCG, 63 g/ha): 42%
- % damage, 1 g ai ha^−1 mesotrione [2, 12]: 53%
- colby [2, 12]: −7
- % damage, no-mesotrione ([2]; ECHCG, 125 g/ha): 57%
- % damage, 1 g ai ha^−1 mesotrione [2, 13]: 68%
- colby [2, 13]: 0
- % damage, no-mesotrione ([2]; ECHCG, 250 g/ha): 65%
- % damage, 1 g ai ha^−1 mesotrione [2, 14]: 75%
- colby [2, 14]: 6
- % damage, no-mesotrione ([2]; ECHCG, 500 g/ha): 67%
- % damage, 1 g ai ha^−1 mesotrione [2, 15]: 18%
- colby [2, 15]: −5
- % damage, no-mesotrione ([2]; SETFA, 16 g/ha): 23%
- % damage, 1 g ai ha^−1 mesotrione [2, 16]: 42%
- colby [2, 16]: 10
- % damage, no-mesotrione ([2]; SETFA, 31 g/ha): 32%
- % damage, 1 g ai ha^−1 mesotrione [2, 17]: 42%
- colby [2, 17]: 8
- % damage, no-mesotrione ([2]; SETFA, 63 g/ha): 33%
- % damage, 1 g ai ha^−1 mesotrione [2, 18]: 62%
- colby [2, 18]: 5
- % damage, no-mesotrione ([2]; SETFA, 125 g/ha): 57%
- % damage, 1 g ai ha^−1 mesotrione [2, 19]: 75%
- colby [2, 19]: 10
- % damage, no-mesotrione ([2]; SETFA, 250 g/ha): 65%
- % damage, 1 g ai ha^−1 mesotrione [2, 20]: 75%
- colby [2, 20]: 5
- % damage, no-mesotrione ([2]; SETFA, 500 g/ha): 70%
